From patent US20110230472A1, “RING-FUSED AZOLE DERIVATIVE HAVING PI3K-INHIBITING ACTIVITY” (Shionogi & Co., Ltd., priority 2008, published 2011)

Key:
CYP2C19 = target: T1, CYP2C19 (Homo sapiens, UniProt P33261); experiment: CYP inhibition test, pooled human liver microsome, CYP2C19; type: in vitro ADME; details: 4′-hydroxylation of mephenyloin
T1 construct: enzyme: pooled human liver microsome 0.2 mg protein/mL; from tissue; host or cells: pooled human liver microsome

PI-3 kinase γ = PI-3 kinase γ (Homo sapiens, UniProt P48736); experiment: PI3Kγ inhibitory activity, PI3-kinase HTRF assay (inhibition ratio); type: biochemical; details: 0.5 h; for inhibition at 50 µM: compound at 50 μM
PI-3 kinase γ, sequence (P48736 whole entry): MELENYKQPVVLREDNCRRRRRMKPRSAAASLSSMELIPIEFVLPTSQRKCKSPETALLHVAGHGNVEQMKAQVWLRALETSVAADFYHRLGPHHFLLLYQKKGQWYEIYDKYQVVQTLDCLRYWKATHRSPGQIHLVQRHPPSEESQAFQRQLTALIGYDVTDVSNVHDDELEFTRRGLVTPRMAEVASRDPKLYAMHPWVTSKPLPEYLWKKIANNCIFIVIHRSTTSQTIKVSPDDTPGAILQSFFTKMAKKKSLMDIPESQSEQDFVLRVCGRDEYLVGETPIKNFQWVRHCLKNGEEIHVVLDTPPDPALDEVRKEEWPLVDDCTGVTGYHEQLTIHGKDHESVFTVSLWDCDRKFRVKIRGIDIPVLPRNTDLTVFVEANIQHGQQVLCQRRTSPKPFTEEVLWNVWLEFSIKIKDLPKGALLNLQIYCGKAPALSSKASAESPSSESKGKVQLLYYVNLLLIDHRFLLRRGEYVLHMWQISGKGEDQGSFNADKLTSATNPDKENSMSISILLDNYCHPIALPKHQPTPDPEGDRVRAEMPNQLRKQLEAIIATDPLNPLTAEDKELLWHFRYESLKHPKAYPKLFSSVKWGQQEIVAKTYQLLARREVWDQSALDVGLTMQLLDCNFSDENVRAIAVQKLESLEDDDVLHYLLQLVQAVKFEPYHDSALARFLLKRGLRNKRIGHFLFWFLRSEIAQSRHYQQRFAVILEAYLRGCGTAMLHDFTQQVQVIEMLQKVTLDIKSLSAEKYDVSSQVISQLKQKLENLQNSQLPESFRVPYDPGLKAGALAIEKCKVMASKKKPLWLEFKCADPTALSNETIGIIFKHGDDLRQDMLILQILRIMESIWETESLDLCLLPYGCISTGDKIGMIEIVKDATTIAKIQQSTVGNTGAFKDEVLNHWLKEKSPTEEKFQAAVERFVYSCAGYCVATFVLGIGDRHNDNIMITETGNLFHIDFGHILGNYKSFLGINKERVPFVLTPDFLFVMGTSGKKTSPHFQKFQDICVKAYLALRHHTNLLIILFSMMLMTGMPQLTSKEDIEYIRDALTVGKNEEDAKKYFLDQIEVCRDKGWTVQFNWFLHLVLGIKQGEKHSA
In short: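 Single-concentration inhibition ratio (50 or 10 μmol/L compound) versus no-compound (100%) and no-enzyme (0%) wells. Reaction: PI-3 kinase γ, PIP2, ATP, MgCl2/DTT, 30 min at RT after 10 min preincubation. Read-out: HTRF 665/620 nm after 18 h detection.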

[1] = target: T2, human ether-a-go-go related gene (hERG) channel (Homo sapiens, UniProt Q12809); experiment: hERG test, whole-cell patch-clamp; type: cell-based; details: HEK293 cell expressing hERG; applied for 10 minutes; concentration not given
T2 construct: expressed in transfected cells; host or cells: HEK293
T2 sequence (Q12809 whole entry): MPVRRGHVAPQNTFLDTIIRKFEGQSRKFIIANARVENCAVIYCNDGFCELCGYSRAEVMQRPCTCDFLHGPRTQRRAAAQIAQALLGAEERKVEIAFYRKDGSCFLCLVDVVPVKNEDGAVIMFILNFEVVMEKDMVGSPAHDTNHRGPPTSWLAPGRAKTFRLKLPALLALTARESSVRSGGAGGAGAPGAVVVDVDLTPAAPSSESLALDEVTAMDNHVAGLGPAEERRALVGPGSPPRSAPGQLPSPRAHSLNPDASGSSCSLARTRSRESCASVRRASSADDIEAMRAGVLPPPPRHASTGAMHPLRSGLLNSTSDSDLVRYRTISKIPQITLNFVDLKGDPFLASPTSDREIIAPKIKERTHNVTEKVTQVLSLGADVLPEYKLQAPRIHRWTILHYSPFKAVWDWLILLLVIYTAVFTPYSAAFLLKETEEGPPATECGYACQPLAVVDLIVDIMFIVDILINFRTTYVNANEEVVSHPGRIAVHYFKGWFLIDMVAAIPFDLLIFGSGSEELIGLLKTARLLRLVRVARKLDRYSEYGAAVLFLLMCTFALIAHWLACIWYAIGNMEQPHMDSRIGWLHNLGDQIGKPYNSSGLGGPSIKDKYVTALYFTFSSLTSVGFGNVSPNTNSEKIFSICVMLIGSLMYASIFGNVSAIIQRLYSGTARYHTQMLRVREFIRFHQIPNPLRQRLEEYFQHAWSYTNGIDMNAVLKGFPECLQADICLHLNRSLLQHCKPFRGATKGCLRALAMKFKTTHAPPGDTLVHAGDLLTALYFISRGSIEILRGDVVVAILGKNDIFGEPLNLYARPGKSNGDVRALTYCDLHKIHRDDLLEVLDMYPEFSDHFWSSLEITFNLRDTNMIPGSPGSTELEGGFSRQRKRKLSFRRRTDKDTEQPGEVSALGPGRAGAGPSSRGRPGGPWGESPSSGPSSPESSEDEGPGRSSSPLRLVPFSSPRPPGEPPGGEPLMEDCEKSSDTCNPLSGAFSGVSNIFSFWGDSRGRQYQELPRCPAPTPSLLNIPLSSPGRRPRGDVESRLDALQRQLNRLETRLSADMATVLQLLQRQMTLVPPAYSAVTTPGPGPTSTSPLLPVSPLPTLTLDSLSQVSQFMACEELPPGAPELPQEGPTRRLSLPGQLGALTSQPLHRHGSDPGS
Excerpt: For the purpose of risk evaluation of QT interval extension of electrocardiogram, the activity on delayed rectification K^+ current (IKr), which plays an important role in a cardiac ventricle repolarization process, was examined using the HEK293 cell that was made to express human ether-a-go-go related gene (hERG) channel.
Using an automatic patch-clamp system (PatchXpress 7000A, Axon Instruments Inc.), by a whole-cell patch-clamp method, after the cell was maintained at a membrane potential of −80 mV, IKr induced upon applying depolarizing stimulation of +50 mV for 2 seconds and further applying repolarizing stimulation of −50 mV for 2 seconds was recorded. After generated electric current became stable, a test substance dissolved at an intended concentration in extracellular fluid (137 mmol/L NaCl, 4 mmol/L KCl, 1.8 mmol/L CaCl2.2H2O, 1 mmol/L MgCl2.6H2O, 10 mmol/L glucose, 10 mmol/L HEPES (4-(2-hydroxyethyl)-1-piperazineethanesulfonic acid), pH=7.4) was applied to the cell for 10 minutes under room temperature condition. From the obtained IKr, the absolute value of the maximum tail current was measured using analysis software (DataXpress ver. 1, Molecular Devices Corporation) and the value of the electric current in a maintained membrane potential as baseline. Moreover, an inhibition ratio for the maximum tail current prior to the application of the test substance was calculated and then compared with a group of media-application (0.1% dimethylsulfoxide solution) to evaluate influence of the test substance on IKr.

CYP3A4 = target: T3, CYP3A4 (Homo sapiens, UniProt P08684); experiment: CYP inhibition test, pooled human liver microsome, CYP3A4; type: in vitro ADME; details: hydroxylation of terfenadine
T3 construct: enzyme: pooled human liver microsome 0.2 mg protein/mL; from tissue; host or cells: pooled human liver microsome
T3 sequence (P08684 whole entry): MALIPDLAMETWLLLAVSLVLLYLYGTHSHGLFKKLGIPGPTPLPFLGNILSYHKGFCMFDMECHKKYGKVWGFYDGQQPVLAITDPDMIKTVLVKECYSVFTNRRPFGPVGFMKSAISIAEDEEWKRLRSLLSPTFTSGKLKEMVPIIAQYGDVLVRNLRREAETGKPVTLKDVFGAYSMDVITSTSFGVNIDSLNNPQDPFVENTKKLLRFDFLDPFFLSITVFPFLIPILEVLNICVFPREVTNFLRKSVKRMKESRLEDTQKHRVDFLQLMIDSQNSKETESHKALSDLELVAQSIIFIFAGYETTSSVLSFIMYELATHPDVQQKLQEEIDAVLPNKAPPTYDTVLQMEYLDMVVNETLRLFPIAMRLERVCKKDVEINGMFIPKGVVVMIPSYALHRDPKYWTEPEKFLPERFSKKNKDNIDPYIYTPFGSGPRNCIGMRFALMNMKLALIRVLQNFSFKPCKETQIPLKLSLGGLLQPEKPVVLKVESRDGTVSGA
In short: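 Pooled human liver microsomes (0.2 mg protein/mL) in 50 mmol/L Hepes with NADPH, 15 min at 37° C; test drug at 1, 5, 10, 20 μmol/L. Substrates: 0.5 μmol/L ethoxyresorufin (1A2, resorufin by fluorescence), 100 μmol/L tolbutamide (2C9), 5 μmol/L dextromethorphan (2D6), 1 μmol/L terfenadine (3A4), metabolites by LC/MS/MS. IC50 from remaining activity vs DMSO control, logistic model.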

T1 sequence (P33261 whole entry): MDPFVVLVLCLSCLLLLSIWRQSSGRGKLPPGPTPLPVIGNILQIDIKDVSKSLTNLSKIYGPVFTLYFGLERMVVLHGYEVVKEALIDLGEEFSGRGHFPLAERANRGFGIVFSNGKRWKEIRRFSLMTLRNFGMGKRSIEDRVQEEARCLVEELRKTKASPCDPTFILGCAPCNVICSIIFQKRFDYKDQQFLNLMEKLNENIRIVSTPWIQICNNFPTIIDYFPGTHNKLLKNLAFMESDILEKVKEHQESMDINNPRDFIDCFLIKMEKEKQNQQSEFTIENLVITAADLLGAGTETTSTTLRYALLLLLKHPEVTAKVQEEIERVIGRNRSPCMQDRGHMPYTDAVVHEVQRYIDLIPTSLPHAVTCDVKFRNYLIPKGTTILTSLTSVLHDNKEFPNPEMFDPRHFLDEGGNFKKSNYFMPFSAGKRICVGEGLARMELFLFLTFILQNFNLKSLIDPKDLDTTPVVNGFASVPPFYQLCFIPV

| Compound | IC50 (CYP2C19) | inhibition at 50 µM (PI-3 kinase γ; PI3Kγ) | inhibition ratio for the maximum tail current (IKr) [1] | IC50 (CYP3A4) | inhibition at 10 µM (PI-3 kinase γ; PI3Kγ, compound at 10 μM) | inhibition at 10 µM (PI-3 kinase γ; compound at 10 μmol/L) |
| --- | --- | --- | --- | --- | --- | --- |
| CNC(=O)Nc1cc2n(n1)CCN2c1ccc(S(C)(=O)=O)cc1 [Compound I-89] | > 20 µM | ≥ 95% | < 0.5% | > 20 µM | – | – |
| CNC(=O)Nc1nc2c(s1)CN(c1cc(Cl)nc(N)n1)CC2 [Compound I-118] | > 20 µM | ≥ 95% | 8.4% | > 20 µM | – | – |
| CNC(=O)Nc1nc2c(s1)CN(c1ccnc(OC)n1)CC2 [Compound I-142] | > 20 µM | ≥ 95% | – | > 20 µM | – | – |
| CNC(=O)Nc1cc2n(n1)CCN2c1cc(C(=O)N2CCOCC2)cc(-c2ccc(N)nc2)c1 [Compound I-200] | > 20 µM | ≥ 95% | 7.3% | > 20 µM | – | – |
| COc1cc(N2CCc3nc(NC(=O)NCC(=O)O)sc3C2)nc(OC)n1 [Compound I-208] | > 20 µM | 93% | 2.7% | > 20 µM | – | – |
| COc1cc(N2CCc3nc(NC(=O)NCc4cc(=O)[nH]o4)sc3C2)nc(OC)n1 [Compound I-279] | > 20 µM | – | 5% | > 20 µM | ≥ 95% | – |
| CN1CCc2cc(N3CCn4nc(NC(=O)c5cccnc5)cc43)ccc2C1=O [Compound I-347] | > 20 µM | – | 6% | > 20 µM | – | 91% |
| CN1CCc2cc(N3CCn4nc(NC(=O)c5ccco5)cc43)ccc2C1=O [Compound I-358] | > 20 µM | – | – | > 20 µM | – | ≥ 95% |
